PMC4547777 (Angewandte Chemie (International ed. in English), 2015)

Biological target: Androgen Receptor (AR) (Homo sapiens, UniProt P10275)
Assay: competition radioligand binding with [3H]-R1881

Androgen Receptor (AR), sequence (P10275 whole entry): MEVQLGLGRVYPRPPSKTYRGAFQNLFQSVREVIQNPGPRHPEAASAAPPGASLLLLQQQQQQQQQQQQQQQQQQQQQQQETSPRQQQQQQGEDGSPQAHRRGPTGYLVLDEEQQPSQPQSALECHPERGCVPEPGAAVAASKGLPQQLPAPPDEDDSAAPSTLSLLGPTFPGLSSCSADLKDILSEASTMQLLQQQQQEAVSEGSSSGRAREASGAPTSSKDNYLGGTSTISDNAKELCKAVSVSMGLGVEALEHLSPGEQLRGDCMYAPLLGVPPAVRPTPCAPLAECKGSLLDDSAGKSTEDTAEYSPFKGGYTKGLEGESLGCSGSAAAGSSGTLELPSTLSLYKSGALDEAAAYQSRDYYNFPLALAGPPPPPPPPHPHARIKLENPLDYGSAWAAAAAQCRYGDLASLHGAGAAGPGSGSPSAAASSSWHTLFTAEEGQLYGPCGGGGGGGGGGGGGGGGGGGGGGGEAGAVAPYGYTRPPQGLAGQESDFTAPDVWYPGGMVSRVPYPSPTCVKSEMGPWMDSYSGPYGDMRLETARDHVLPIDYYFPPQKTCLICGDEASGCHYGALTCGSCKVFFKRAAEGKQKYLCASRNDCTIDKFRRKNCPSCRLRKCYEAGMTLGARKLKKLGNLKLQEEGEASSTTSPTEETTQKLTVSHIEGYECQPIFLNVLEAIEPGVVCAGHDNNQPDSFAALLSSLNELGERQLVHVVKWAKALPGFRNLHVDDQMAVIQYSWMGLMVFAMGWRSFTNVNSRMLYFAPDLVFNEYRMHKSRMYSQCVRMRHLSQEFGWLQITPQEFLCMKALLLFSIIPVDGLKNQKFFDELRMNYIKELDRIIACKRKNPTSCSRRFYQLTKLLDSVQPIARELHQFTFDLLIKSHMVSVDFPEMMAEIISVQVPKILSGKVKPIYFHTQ

CC1(C)C(=O)N(c2ccc(C#N)c(C(F)(F)F)c2)C(=S)N1CCCCO [RU59063]
competition radioligand binding with [3H]-R1881 (parent ligand): competition radioligand binding assay using [^3H]-R1881 showed that appending of the adamantyl group to RU59063 reduced affinity
